Measured values taken from the supplement of paper PMC10307832.

Experiments:
Assay in all cases: relative viability (nuclei count vs DMSO), 5 days (fraction); higher = more cells survive
[1] = compound: CCn1c(-c2nonc2N)nc2cnc(Oc3cccc(NC(=O)c4ccc(OCCN5CCOCC5)cc4)c3)cc21 + CC(=O)Nc1cccc(-n2c(=O)n(C3CC3)c(=O)c3c(Nc4ccc(I)cc4F)n(C)c(=O)c(C)c32)c1 [Trametinib] (partner 0.02 µM)
Method in brief: (§1)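 Each reported value is a median over duplicate plates. It expresses relative viability: treated-well nuclei count divided by vehicle-well nuclei count. Lung cancer cell lines in 1536-well plates were dosed by pin tool a day after seeding, alone with one drug or with a fixed anchor-drug dose plus five library-drug doses (not always all listed) in √10 steps, and nuclei were counted after 5 days.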

Mirin + Dasatinib = compound: N=C1NC(=O)/C(=C/c2ccc(O)cc2)S1 [Mirin] + Cc1nc(Nc2ncc(C(=O)Nc3c(C)cccc3Cl)s2)cc(N2CCN(CCO)CC2)n1 [Dasatinib] (partner 0.075 µM)
Method in brief: as §1

[2] = compound: CCC1=CN=CN=C1N2CCN(CC2)CC3=NC4=C(N3)C=C(C=C4)C(F)(F)F + Cc1nc(NC(=O)N2CCC[C@H]2C(N)=O)sc1-c1ccnc(C(C)(C)C(F)(F)F)c1 [Alpelisib] (partner 2 µM)
Method in brief: as §1

[3] = compound: CCn1c(-c2nonc2N)nc2cnc(Oc3cccc(NC(=O)c4ccc(OCCN5CCOCC5)cc4)c3)cc21 + O=C(CCCCCCC(=O)Nc1ccccc1)NO [Vorinostat] (partner 1 µM)
Method in brief: as §1

Cell Line | relative viability ([1]; first compound 0.04 µM) | relative viability ([1]; first compound 0.1265 µM) | relative viability ([1]; first compound 0.4 µM) | relative viability ([1]; first compound 1.265 µM) | relative viability ([1]; first compound 4 µM) | relative viability (Mirin + Dasatinib; first compound 0.25 µM) | relative viability (Mirin + Dasatinib; first compound 2.5 µM) | relative viability (Mirin + Dasatinib; first compound 7.906 µM) | relative viability (Mirin + Dasatinib; first compound 25 µM) | relative viability ([2]; first compound 0.04 µM) | relative viability ([2]; first compound 0.1265 µM) | relative viability ([2]; first compound 0.4 µM) | relative viability ([2]; first compound 1.265 µM) | relative viability ([2]; first compound 4 µM) | relative viability ([3]; first compound 0.04 µM) | relative viability ([3]; first compound 0.1265 µM) | relative viability ([3]; first compound 0.4 µM) | relative viability ([3]; first compound 1.265 µM) | relative viability ([3]; first compound 4 µM) | relative viability (Mirin + Dasatinib; first compound 0.7906 µM)
LK-2 | 0.753 | 0.969 | 0.65 | 0.666 | 0.899 | 0.275 | 0.272 | 0.194 | 0.178 | 1.14 | 1.09 | 0.991 | 0.775 | 1.06 | 0.522 | 0.37 | 0.168 | 0.178 | 0.156 | –
NCI-H2023 | 0.708 | 0.652 | 0.474 | 0.317 | 0.237 | 0.562 | 0.548 | 0.463 | 0.335 | 0.593 | 0.576 | 0.616 | 0.602 | 0.571 | 1.02 | 0.675 | 0.669 | 0.429 | 0.334 | 0.541
NCI-H647 | 0.494 | 0.38 | 0.261 | 0.303 | 0.286 | 0.152 | 0.216 | 0.174 | 0.132 | 1.16 | 1.05 | – | 1.02 | 1.05 | 0.894 | 0.638 | 0.57 | 0.378 | 0.276 | 0.177
SK-MES-1 | 0.534 | 0.519 | 0.402 | 0.391 | 0.328 | 0.368 | 0.446 | 0.475 | 0.389 | 0.986 | 1.05 | 0.852 | 0.868 | 0.86 | 1.22 | 0.968 | 0.868 | 0.819 | 0.597 | 0.341
NCI-H1793 | 0.356 | 0.476 | 0.425 | 0.401 | 0.327 | 0.481 | 0.391 | 0.409 | 0.344 | 0.618 | 0.553 | 0.557 | – | 0.637 | 0.721 | 0.712 | 0.602 | 0.424 | 0.496 | –
NCI-H3122 | 0.175 | 0.189 | 0.254 | 0.226 | 0.247 | 0.892 | 0.807 | 0.685 | 0.665 | 0.954 | 0.77 | 0.856 | 1.01 | 0.872 | 1.1 | 0.971 | 0.671 | 0.781 | 0.61 | 0.419
LCLC-103H | 0.651 | 0.737 | 0.655 | 0.638 | 0.639 | 0.44 | 0.491 | 0.348 | 0.422 | 0.901 | 1.05 | 0.952 | 0.932 | 1.15 | 0.921 | 0.8 | 0.55 | 0.537 | 0.512 | 0.469
NCI-H520 | 0.734 | 0.738 | 0.469 | 0.406 | 0.311 | 0.192 | 0.282 | 0.172 | 0.249 | 1.08 | 0.883 | 0.838 | 0.765 | 1.01 | 0.957 | 0.856 | 0.774 | 0.478 | 0.297 | 0.164
NCI-H1755 | 0.832 | 0.772 | 0.71 | 0.749 | 0.734 | 0.396 | 0.391 | 0.389 | 0.436 | 0.881 | 0.913 | 0.923 | 0.862 | 0.895 | 0.843 | 0.796 | 0.615 | 0.577 | 0.506 | 0.383
NCI-H358 | 0.14 | 0.161 | 0.115 | 0.129 | 0.113 | 0.2 | 0.161 | 0.134 | 0.13 | 0.892 | 0.836 | 0.833 | 0.853 | 0.747 | 0.814 | 0.736 | 0.715 | 0.715 | 0.511 | 0.16
NCI-H1734 | 0.676 | 0.729 | 0.69 | 0.603 | 0.467 | 0.484 | 0.469 | 0.45 | 0.438 | 0.686 | 0.754 | 0.795 | – | 0.676 | 0.937 | 0.838 | 0.586 | 0.412 | 0.399 | 0.436
EPLC-272H | 0.365 | 0.347 | 0.256 | 0.213 | 0.197 | 0.416 | 0.413 | 0.301 | 0.232 | 0.795 | 0.85 | 0.813 | 0.979 | 0.981 | 0.467 | 0.545 | 0.425 | 0.357 | 0.348 | –
NCI-H2228 | 0.558 | 0.495 | 0.345 | 0.349 | 0.362 | 0.594 | 0.516 | 0.448 | 0.412 | 0.726 | 0.931 | 0.805 | 0.651 | 0.675 | 0.842 | 0.524 | 0.891 | 0.543 | 0.456 | 0.458
